According to patent publication US11351194B2, “Method for proliferating neural progenitor cells and composition for treating neurological diseases containing proliferated neural progenitor cells” (COLLEGE OF MEDICINE POCHON CHA UNIVERSITY INDUSTRY-ACADEMIC …, priority 2014, dated 2022):

Key:
[1] = test system: fetal neural progenitor cells; test: Cell viability by MTT assay; format: cell-based, human; conditions: 7 days
Description: Human neural progenitor cells were isolated from 14 week-old human fetuses. Before obtaining the fetus samples, informed consents that had been sufficiently described to parents in advance were received. In addition, the sample collection and use thereof for research were approved by the Institutional Review Board of the CHA Hospital. Ventral midbrain tissues in the brain of a […] human fetus were isolated according to the method disclosed in Storch et al. 2001; and Milosevic et al. 2006, 2007, and then, dissociated into a single cell suspension by treating the ventral midbrain tissues in a solution containing 0.1 mg/ml of papain and 100 μg/ml of DNase at a temperature of 37° C. for about 30 minutes. The single cell suspension was washed with phosphate buffered saline (PBS), and then, incubated in 50 μg/ml of antipain at a temperature of 37° C. for 30 minutes. The resulting neural progenitor cells were plated, in a monolayer, at a density of 30,000 cells/cm^2, onto a culture dish that was pre-coated with 15 μg/ml of poly-L-omithine and 4 μg/ml of fibronectin, and then, cultured. The cultured fetus neural progenitor cells were seeded on a 96-well plate at a density of 1×10^4 cells/well, cultured for 7 days, and treated with an MTT reagent. Then, by measuring optical density thereof (at a wavelength of 570 nm), the cell viability was analyzed.

[2] = test system: fetal neural progenitor cells; test: Immunocytochemistry analysis using Ki67, Nestin and DAPI markers; format: cell-based, human; conditions: for expression of Ki67: in comparison with M1 and M2 (general culture condition), Ps<0.0001, FIG. 3B; for frequency of expression of both Ki67 and Nestin: in comparison with general culture condition, FIG. 3C
Description: (§1) 20 ng/ml of each of bFGF and EGF (available from Peprotech, R&D system) and 10 ml of a B27 supplement (available from GIBCO) were added to 500 ml of a mixed medium of DMEM/F12 (1:1) containing 0.5 ml of Primocin, which is an antibiotic formulation, and then, the fetal neural progenitor cells were cultured under a condition in which 1 μg/ml of DL-alpha-tocopherol acetate (M3), 1 μg/ml of (t)-alpha-tocopherol (M4), or a combination thereof (M5) was added. The resulting fetal neural progenitor cells were compared with those cultured under a general culture condition. Regarding the general culture condition, 20 ng/ml of each of bFGF and EGF and an α-supplement (2.5 mg insulin, 25 mg transferrin, 0.03 μM sodium selenite, 36.5 mg L-glutamine, and 0.75 g L-glucose) were added to 500 ml of a mixed medium of DMEM/F12 (1:1) containing 0.5 ml of Primocin, which is an antibiotic formulation, and then, the fetal neural progenitor cells were cultured therein (M1), or under a condition in which the B27 supplement was further added (M2).
The fetal neural progenitor cells were seeded on a 24-well plate at a density of 1×10^5 cells/well, cultured for 7 days, and then, subjected to immunocytochemistry analysis using Ki67, Nestin, and DAPI markers.

[3] = test system: fetal neural progenitor cells; test: Immunocytochemistry analysis using GFAP, Tuj1 and DAPI markers; format: cell-based, human; conditions: for expression of Tuj1 / expression of GFAP: in comparison with M1 and M2 (general culture condition); for expression of Tuj1: Ps<0.02, FIG. 4C; for expression of GFAP: Ps<0.04, FIG. 4B; for frequency of expression of both GFAP and Tuj1: FIG. 4D
Description: as §1
The neural progenitor cells were seeded on a 24-well plate at a density of 1×10^5 cells/well, cultured for 7 days, and then, subjected to immunocytochemistry analysis using GFAP, Tuj1, and DAPI markers.

[4] = test system: fetal neural progenitor cells; test: Cytometry (cell number); conditions: 1 μg/ml, 7 days; compared to general condition; Ps<0.0001; FIG. 2B
Description: The resulting fetal neural progenitor cells were compared with those cultured under a general culture condition. Regarding the general culture condition, 20 ng/ml of each of bFGF and EGF and an α-supplement (2.5 mg insulin, 25 mg transferrin, 0.03 μM sodium selenite, 36.5 mg L-glutamine, and 0.75 g L-glucose) were added to 500 ml of a mixed medium of DMEM/F12 (1:1) containing 0.5 ml of Primocin, which is an antibiotic formulation, and then, the fetal neural progenitor cells were cultured therein (M1), or under a condition in which the B27 supplement was further added (M2).
The fetal neural progenitor cells were seeded on a 6-well plate at a density of 2×10^5 cells/well, cultured for 7 days, and then subjected to cytometry.

[5] = 1 μg/ml in medium, in comparison with general culture condition (M1, M2), Ps<0.02, FIG. 1
[6] = hypoxia (oxygen about 0.1% to about 10%) in comparison with normoxia, M3: P<0.009, M4: P<0.01, M5: P<0.001
[7] = 7 days, printed comparator: cells cultured under normoxia, Ps≤0.0001, FIG. 3D
[8] = 7 days, in comparison with general culture condition, Ps<0.0001
[9] = 7 days, in comparison with general culture condition, Ps<0.0001, FIG. 4E

Row | SMILES | cell viability (MTT, optical density 570 nm) [1, 5] | cell viability (MTT, optical density 570 nm) [1, 6] | expression of Ki67 ([2]; 7 days) | frequency of expression of both Ki67 and Nestin ([2]; 7 days, Ps≤0.0001) | expression of Dapi [2, 7] | expression of Dapi ([2]; hypoxia compared with normoxia, M4 P<0.006, M5 P<0.0001) | expression of Tuj1 ([3]; 7 days) | expression of GFAP ([3]; 7 days) | frequency of expression of both GFAP and Tuj1 [3, 8] | expression of Dapi [3, 9] | expression of Dapi ([3]; hypoxia in comparison with normoxia, M4: P<0.006) | number of fetal neural progenitor cells [4]
1 | Cc1c(C)c2c(c(C)c1O)CC[C@@](C)(CCC[C@H](C)CCC[C@H](C)CCCC(C)C)O2 [alpha-tocopherol, (t)-alpha-tocopherol] | higher cell viability that is statistically significant | higher cell viability that is statistically significant | increased expression of Ki67 of significance | higher frequency of expression of both Ki67 and Nestin together in a statistically significant manner | statistically significant increase in the expression of Dapi | statistically significant increase in the expression of Dapi | reduced expression of Tuj1 in a statistically significant manner | reduced expression of GFAP in a statistically significant manner | lower frequency of expression of both GFAP and Tuj1 together | statistically significant increase in expression of Dapi | statistically significant increase in the expression of Dapi | significantly increased number of fetal neural progenitor cells
2 | CC(=O)Oc1c(C)c(C)c2c(c1C)CCC(C)(CCCC(C)CCCC(C)CCCC(C)C)O2 (racemic) [DL-alpha-tocopherol acetate] | higher cell viability that is statistically significant | higher cell viability that is statistically significant | increased expression of Ki67 of significance | higher frequency of expression of both Ki67 and Nestin together in a statistically significant manner | statistically significant increase in the expression of Dapi | – | reduced expression of Tuj1 in a statistically significant manner | reduced expression of GFAP in a statistically significant manner | lower frequency of expression of both GFAP and Tuj1 together | statistically significant increase in expression of Dapi | – | significantly increased number of fetal neural progenitor cells
